Columns and labels:
[1] = test system: S. aureus no. 12; test: MIC vs S. aureus LMG 10147, MSSA; assay type: cell-based, Staphylococcus aureus; conditions: Uridine 0 μg/ml
[2] = test system: K. pneumoniae EN010; test: MIC, WT; assay type: cell-based, Klebsiella pneumoniae; conditions: combination FdUrd+trimethoprim+uridine, Table 8
[3] = test system: K. pneumoniae EN011; assay type: cell-based, Klebsiella pneumoniae; conditions: combination FdUrd+trimethoprim+uridine, Table 8
[4] = test system: E. coli EN013; assay type: cell-based, Escherichia coli; conditions: combination FdUrd+trimethoprim+uridine, Table 8
[5] = test system: P. aeruginosa EN014; test: MIC, WT; assay type: cell-based, Pseudomonas aeruginosa; conditions: combination FdUrd+trimethoprim+uridine, Table 8
[6] = test system: P. aeruginosa EN015; assay type: cell-based, Pseudomonas aeruginosa; conditions: combination FdUrd+trimethoprim+uridine, Table 8
[7] = test system: A. baumannii EN017; assay type: cell-based, Acinetobacter baumannii; conditions: combination FdUrd+trimethoprim+uridine, Table 8
[8] = test system: E. coli EN0135; test: MIC, ESBL (SHV-2a); assay type: cell-based; conditions: combination FdUrd+trimethoprim+uridine, Table 19
[9] = test system: E. coli EN0136; test: MIC, ESBL (CTX-M-2); assay type: cell-based; conditions: combination FdUrd+trimethoprim+uridine, Table 19
[10] = test system: E. coli EN0138; test: MIC, ESBL (CTX-M-9); assay type: cell-based; conditions: combination FdUrd+trimethoprim+uridine, Table 19
[11] = test system: E. coli EN0139; test: MIC, ESBL (CTX-M-15); assay type: cell-based; conditions: combination FdUrd+trimethoprim+uridine, Table 19
[12] = test system: K. pneumoniae EN0140; test: MIC, AmpC (DHA-1); assay type: cell-based; conditions: combination FdUrd+trimethoprim+uridine, Table 19
[13] = test system: K. pneumoniae EN0233; test: MIC; assay type: cell-based; conditions: combination FdUrd+trimethoprim+uridine, Table 19
[14] = test system: K. pneumoniae EN0143; test: MIC, ESBL (SHV-12); assay type: cell-based; conditions: combination FdUrd+trimethoprim+uridine, Table 19
[15] = test system: K. pneumoniae EN0262; test: MIC, ESBL (+), KPC+; assay type: cell-based; conditions: combination FdUrd+trimethoprim+uridine, Table 19 and 21
[16] = test system: K. pneumoniae EN0401; test: MIC, Carbapenemase + ESBL; assay type: cell-based; conditions: combination FdUrd+trimethoprim+uridine, Table 19
[17] = test system: K. pneumoniae EN0436; test: MIC, colistinR; assay type: cell-based; conditions: combination FdUrd+trimethoprim+uridine, Table 19
[18] = test system: K. pneumoniae EN0437; test: MIC, colistinR; assay type: cell-based; conditions: combination FdUrd+trimethoprim+uridine, Table 19
[19] = test system: S. flexneri APV00906; test: microbe, parasite or virus in culture; assay type: cell-based; conditions: combination FdUrd+trimethoprim+uridine, Table 22A
Description: (§1) Inhibition of Heliobacter is important in view of increasing resistance and its association to gastric cancer.

[20] = test system: Helicobacter pylori APV00918; test: MIC; assay type: cell-based; conditions: combination FdUrd+trimethoprim+uridine, Table 22A
Description: as §1

[21] = test system: Helicobacter pylori ATTC43504; test: MIC; assay type: cell-based; conditions: combination FdUrd+trimethoprim+uridine, Table 22A
Description: as §1

[22] = test system: S. aureus no. 11; test: MIC; assay type: cell-based
[23] = test system: S. aureus V86; test: MIC; assay type: cell-based; conditions: Uridine 0 μg/ml
[24] = test system: S. aureus V308; test: MIC; assay type: cell-based
[25] = test system: P. aeruginosa EN005; conditions: combination FdUrd+trimethoprim+uridine, Table 8
[26] = test system: S. aureus strain no 13; test: MIC vs S. aureus LMG 15975, MRSA; conditions: Uridine 0 μg/ml
[27] = test system: E. coli strain no 2; test: MIC vs E. coli LMG 15862, penicillin resistant; conditions: Table 26B
[28] = Iclaprim 0.008 μg/ml, Uridine 0 μg/ml
[29] = Iclaprim 0.008 μg/ml, Uridine 100 μg/ml
[30] = Iclaprim 0.03 μg/ml, Uridine 0 μg/ml
[31] = Iclaprim […], Uridine 100 μg/ml

O=c1[nH]c(=O)n([C@H]2C[C@H](O)[C@@H](CO)O2)cc1F [FdUrd, Fluorodeoxyuridine]
MIC FdUrd ([1]; Iclaprim 0.008 μg/ml): >4 µg/mL | MIC FdUrd ([1]; Iclaprim 0.03 μg/ml): >4 µg/mL | MIC FdUrd ([1]; Iclaprim […]): >4 µg/mL | MIC [2]: 0.5 µg/mL | MIC [3]: 0.064 µg/mL | MIC [4]: 0.016 µg/mL | MIC [5]: >4 µg/mL | MIC [6]: 1 µg/mL | MIC [7]: 0.5 µg/mL | MIC [8]: 0.25 µg/mL | MIC [9]: 1 µg/mL | MIC [10]: 0.25 µg/mL | MIC [11]: 0.5 µg/mL | MIC [12]: >4 µg/mL | MIC [13]: 0.5 µg/mL | MIC [14]: >4 µg/mL | MIC [15]: 2 µg/mL | MIC [16]: >4 µg/mL | MIC [17]: 0.25 µg/mL | MIC [18]: >4 µg/mL | MIC [19]: >4 µg/mL | MIC [20]: 0.06 µg/mL | MIC [21]: 0.06 µg/mL | MIC FdUrd [22, 28]: >4 µg/mL | MIC FdUrd [22, 29]: >4 µg/mL | MIC FdUrd [22, 30]: >4 µg/mL | MIC FdUrd ([22]; Iclaprim 0.03 μg/ml, Uridine 100 μg/ml): >4 µg/mL | MIC FdUrd ([22]; Iclaprim […], Uridine 0 μg/ml): >4 µg/mL | MIC FdUrd [22, 31]: >4 µg/mL | MIC FdUrd ([23]; Iclaprim 0.008 μg/ml): >4 µg/mL | MIC FdUrd ([23]; Iclaprim 0.03 μg/ml): >4 µg/mL | MIC FdUrd ([23]; Iclaprim 0.06 μg/ml): >4 µg/mL | MIC FdUrd ([23]; Iclaprim […]): >4 µg/mL | MIC FdUrd ([24]; Iclaprim 0 μg/ml, Uridine 0 μg/ml): >16 µg/mL | MIC FdUrd ([24]; Iclaprim 0 μg/ml, Uridine 100 μg/ml): >16 µg/mL | MIC FdUrd [24, 28]: >4 µg/mL | MIC FdUrd [24, 29]: >4 µg/mL | MIC FdUrd [24, 30]: >4 µg/mL | MIC FdUrd ([24]; Iclaprim 0.06 μg/ml, Uridine 0 μg/ml): >4 µg/mL | MIC FdUrd ([24]; Iclaprim […], Uridine 0 μg/ml): >4 µg/mL | MIC FdUrd [24, 31]: >4 µg/mL | MIC [25]: 0.25 µg/mL | MIC FdUrd ([26]; Table 26A (isolate not given), Iclaprim 0.015): >0.5 µg/mL | MIC FdUrd ([26]; Table 26A (isolate not given), Iclaprim 0.03): >0.5 µg/mL | MIC FdUrd ([26]; Table 26A (isolate not given), Iclaprim 0.08): >0.5 µg/mL | MIC FdUrd ([26]; Table 30C, Iclaprim 0.008 μg/ml): >4 µg/mL | MIC FdUrd ([26]; Table 30C, Iclaprim 0.03 μg/ml): >4 µg/mL | MIC FdUrd ([26]; Table 30C, Iclaprim […]): >4 µg/mL | MIC FdUrd ([27]; Iclaprim 0, Uridine 0 μg/ml): >16 µg/mL | MIC FdUrd ([27]; Iclaprim 0, Uridine 100 μg/ml): >16 µg/mL | MIC FdUrd ([27]; Iclaprim 0, Uridine 300 μg/ml): >16 µg/mL | MIC FdUrd ([27]; Iclaprim 0, Uridine 500 μg/ml): >16 µg/mL | MIC FdUrd ([27]; Iclaprim 0.1, Uridine 0 μg/ml): >8 µg/mL | MIC FdUrd ([27]; Iclaprim 0.1, Uridine 100 μg/ml): >8 µg/mL | MIC FdUrd ([27]; Iclaprim 0.2, Uridine 0 μg/ml): >8 µg/mL

Source: US10828317B2, “Method of treating bacterial infections” (priority 2016, dated 2020)
